We go through 22 compounds from patent US4192799A, “Conjugates formed by reacting a prostaglandin mimic compound with a carrier molecule” (The Upjohn Company, priority 1977, dated 1980).

Data set [1] has as its system antiserum raised against 9-deoxy-9-methylene PGF2 (KLH Conjugate). Put plainly: RIA cross-reactivity of antiserum raised against 9-deoxy-9-methylene PGF2, KLH conjugate. The data set is classed as binding, Albino New Zealand rabbits. The following applies: relative to PGE2; ng required to displace 50% of [3H]PGE2. The method, then:
(§1) Five milligrams of KLH-PGE2 mimic conjugate is added to 2.25 ml. of sterile saline (0.9%) and 2.25 ml. of Freund's complete adjuvant and blended. 1.0 ml. of this mixture is injected subcutaneously at 20-30 sites on the flanks of four Albino New Zealand rabbits of 2-4 kg. mass. Each rabbit receives a dose of about 1 mg. On the same day, 1.0 ml. of attenuated pertussis vaccine is injected intramuscularly at four sites on the hindquarters of each rabbit.
(§2) A known amount of PGE-type compound in 0.1 ml. PBSG buffer at pH 7.4±0.2 and 0.1 ml. of the radiolabeled form of the same PGE-type compound (10,000 cpm/0.1 ml. PBSG) are introduced into a 12×75 mm. polypropylene tube. Antiserum (0.1 ml.) against the corresponding mimic is added at a dilution which will bind 50%±3% of the radiolabeled authentic PGE-type compound in the absence of competition from the unlabeled PGE-type compound. The tube is incubated for 1 hour at 25° and then 12-16 hours at 4°. Antibody bound and free fractions are separated with dextrancoated charcoal. Other separation techniques are acceptable.
(§3) The data below show the cross-reactivity of antiserum raised against 9-deoxy-9-methylene PGF2 to various PGE-type compounds, relative to PGE2. Percent cross-reaction is defined as (ng. of PGE2 required to displace 50% of [^3 H] PGE2)/(ng. heterologous PG required to displace 50% of [^3 H] PGE2)×100.

The test system of data set [2] is antiserum raised against 9-deoxy-9-methylene PGF2 (BSA Conjugate). Put plainly: RIA cross-reactivity of antiserum raised against 9-deoxy-9-methylene PGF2, BSA conjugate. Format: binding, Albino New Zealand rabbits. The following applies: relative to PGE2; ng required to displace 50% of [3H]PGE2. Here is the method: as §1
Antibodies against other PG mimics can be elicited by substituting equal amounts of other conjugates, such as those of preparations 1 through 9, for the KLH-PGE2 mimic conjugate in procedure 1. For example, the following conjugates can be substituted:
as §2, §3

Data set [3] deals with antibodies against PGE1 -BSA conjugate (Example 5). The settings on record: Table 1 Example 5, conjugate PGE1 -BSA, PGE1 = 100; cited from earlier work.
Data set [4] concerns antibodies against PGE2 -BSA conjugate (Example 3). The settings on record: Table II Example 3, conjugate PGE2 -BSA, PGE2 = 100; cited from earlier work.
Data set [5] relates to antibodies against PGE1 -poly-1-lysine conjugate. The settings on record: Table 1 Example 2, conjugate PGE1 -poly-1-lysine, PGE1 = 100; cited from earlier work.
Data set [6] relates to antibodies against PGE1 -BSA conjugate (Example 6). The settings on record: Table 1 Example 6, conjugate PGE1 -BSA, PGE1 = 100; cited from earlier work.
Data set [7] deals with antibodies against PGE2 -BSA conjugate (Example 1). The following applies: Table II Example 1, conjugate PGE2 -BSA, PGE2 = 100; cited from earlier work.
Data set [8] relates to antibodies against PGE1 -BSA conjugate (Example 4). The settings on record: Table 1 Example 4, conjugate PGE1 -BSA, PGE1 = 100; cited from earlier work.
The test system of data set [9] is antibodies against PGE1 -BSA conjugate (Example 7). The settings on record: Table 1 Example 7, conjugate PGE1 -BSA, PGE1 = 100; cited from earlier work.
For data set [10], the system named is antibodies against PGE2 -BSA conjugate (Example 5). The settings on record: Table II Example 5, conjugate PGE2 -BSA, PGE2 = 100, cited from earlier work.
Data set [11] relates to antibodies against PGE2 -hen gamma globulin conjugate. The following applies: Table II Example 4, conjugate PGE2 -hen gamma globulin, PGE2 = 100; cited from earlier work.
Data set [12] relates to antibodies against PGE1 -porcine gamma globulin conjugate. The settings on record: Table 1 Example 3, conjugate PGE1 -porcine gamma globulin, PGE1 = 100; cited from earlier work.
The subject of data set [13] is antibodies against PGE2 -KLH conjugate. The following applies: Table II Example 2, conjugate PGE2 -KLH, PGE2 = 100; cited from earlier work.
Data set [14] concerns antibodies against PGE1 -thyroglobulin conjugate. The settings on record: Table 1 Example 1, conjugate PGE1 -thyroglobulin, PGE1 = 100; cited from earlier work.
For data set [15] the following is noted: aqueous solution at room temperature; cited from earlier work.

Read-outs that look alike come from different tables or passages of the source.

Regarding `CCCCC[C@H](O)/C=C/[C@@H]1[C@@H](CC(=O)CCCCC(=O)O)[C@@H](O)C[C@H]1O` [6-keto-PGF1 α], in [1], the “% Cross-Reaction KLH Conjugate” value worked out at 0.10%. In addition, the “% Cross-Reaction BSA Conjugate” value in data set [2] is 0.50%.
Taken in the same sequence, the figures for `C=C1C[C@@H](O)[C@H](/C=C/[C@@H](O)CCCCC)[C@H]1C/C=C\CCCC(=O)O` [9-deoxy-9-methylene PGF2, 9-deoxy-9-methylene-PGF2] were 100% and 100%.
Taken in the same sequence, the figures for `CCCCCC(=O)CC[C@H]1[C@H](O)CC(=O)[C@@H]1C/C=C\CCCC(=O)O` [13,14-dihydro-15-keto-PGE2, 13,14-dihydro-15-keto-PGE] were 0.03% and 0.2%.
The matching figures for `CCCCCC(=O)CC[C@@H]1[C@@H](C/C=C\CCCC(=O)O)[C@@H](O)C[C@H]1O` [13,14-dihydro-15-keto-PGF2 α]: 0.10% and 0.01%.
Take `CCCCC[C@H](O)CC[C@H]1[C@H](O)CC(=O)[C@@H]1C/C=C\CCCC(=O)O` [13,14-dihydro-PGE2]: the “% Cross-Reaction KLH Conjugate” value in data set [1] amounted to 1.6%. The “% Cross-Reaction BSA Conjugate” value in [2] came out at 3.6%.
The matching figures for `CCCCC[C@H](O)CC[C@@H]1[C@@H](C/C=C\CCCC(=O)O)[C@@H](O)C[C@H]1O` [13,14-dihydro-PGF2 α]: 0.34% and 0.2%.
For `CCCCCC(=O)/C=C/[C@H]1[C@H](O)CC(=O)[C@@H]1C/C=C\CCCC(=O)O` [15-keto-PGE2], the “% Cross-Reaction KLH Conjugate” value in [1] is given as 0.03%. For the same compound, the “% Cross-Reaction BSA Conjugate” value in data set [2] amounted to 2.5%.
`CCCCCC(=O)/C=C/[C@@H]1[C@@H](C/C=C\CCCC(=O)O)[C@@H](O)C[C@H]1O` [15-keto-PGF2 α]: in [1], the “% Cross-Reaction KLH Conjugate” value turned out to be 0.01%. Besides, the “% Cross-Reaction BSA Conjugate” value in [2] was 0.2%.
On to `CCCCC[C@H](O)/C=C/[C@H]1C=CC(=O)[C@@H]1CCCCCCC(=O)O` [PGA1], for which the “% Cross Reaction” value in [3] is reported as 25%; in data set [4], 200%; in [5] it was 220%; in data set [6] it was 10,000%; in data set [7], 7%; in data set [8], 100%. Moreover, the “% Cross Reaction” value in [9] was 6%. Besides, the “% Cross-Reaction KLH Conjugate” value in [1] is 0.08%. Also, the “% Cross-Reaction BSA Conjugate” value in [2] came out at 4.9%.
Regarding `CCCCC[C@H](O)/C=C/[C@H]1C=CC(=O)[C@@H]1C/C=C\CCCC(=O)O` [PGA2], the “% Cross Reaction” value in data set [3] is given as 10%; in [4] it was 400%; in [5], 440%; in data set [10], 550%; in data set [10] (listed as A2), “recognized preferentially”; in data set [6] it was 1000%. Moreover, the “% Cross Reaction” value in data set [7] was 7%; in [11] it was 3%; in data set [8], 100%. In data set [1], the “% Cross-Reaction KLH Conjugate” value is 0.75%. In addition, the “% Cross-Reaction BSA Conjugate” value in [2] came out at 2.8%.
`CCCCC[C@H](O)/C=C/C1=C(CCCCCCC(=O)O)C(=O)CC1` [PGB1]: the “% Cross Reaction” value is on record as 31,000% in [5], 10% in [12], 100,000% in [6] and 66% in data set [9]. In addition, in data set [1], the “% Cross-Reaction KLH Conjugate” value is 0.005%. Besides, the “% Cross-Reaction BSA Conjugate” value in data set [2] worked out at 0.1%.
On to `CCCCC[C@H](O)/C=C/C1=C(C/C=C\CCCC(=O)O)C(=O)CC1` [PGB2], for which the “% Cross Reaction” value in [5] is 8,500%; in [10] it was 580%; in [10] (listed as B2) it was “recognized preferentially”; in data set [6] it was 50,000%; in data set [7], 7%; in data set [8], 100%. In addition, the “% Cross-Reaction KLH Conjugate” value in data set [1] amounted to 0.009%. The “% Cross-Reaction BSA Conjugate” value in data set [2] is reported as 0.0%.
Turning to `CCCCC[C@H](O)/C=C/[C@H]1C(=O)C[C@H](O)[C@@H]1CCCCCCC(=O)O` [PGD1], the “% Cross-Reaction KLH Conjugate” value in [1] came out at 0.02%. For the same compound, the “% Cross-Reaction BSA Conjugate” value in [2] is 4.9%.
The matching figures for `CCCCC[C@H](O)/C=C/[C@H]1C(=O)C[C@H](O)[C@@H]1C/C=C\CCCC(=O)O` [PGD2]: 0.02% and 10.0%.
For `CCCCC[C@H](O)/C=C/[C@H]1[C@H](O)CC(=O)[C@@H]1CCCCCCC(=O)O` [PGE1], the “% Cross Reaction” value in [3] was 100%; in data set [13], 110%; in data set [4] it was 73%; in [5] it was 100%; in data set [10], 55%; in data set [12], 100%. Moreover, the “% Cross Reaction” value in [14] is on record as 100%; in data set [6] it was 100%; in [7] it was 10%; in data set [11] it was 15%; in data set [8], 100%; in [9], 100%. Also, the “% Cross-Reaction KLH Conjugate” value in [1] is listed as 90%. The “% Cross-Reaction BSA Conjugate” value in [2] came out at 100%.
For `CCCCC[C@H](O)/C=C/[C@H]1[C@H](O)CC(=O)[C@@H]1C/C=C\CCCC(=O)O` [PGE2, prostaglandin E2], the “% Cross Reaction” value is recorded as 100% in [13]; 100% in data set [4]; 10% in data set [5]; 100% in [10]; 20% in data set [14]; 90% in data set [6]. For the same compound, the “% Cross Reaction” value in [7], in data set [11] and in data set [8] was 100% each time.
Regarding `CCCCC[C@H](O)/C=C/[C@@H]1[C@@H](CCCCCCC(=O)O)[C@H](O)C[C@H]1O` [PGF1 β], the “% Cross-Reaction KLH Conjugate” value in data set [1] turned out to be 0.30%. Also, in data set [2], the “% Cross-Reaction BSA Conjugate” value came to 5.0%.
The matching figures for `CCCCC[C@H](O)/C=C/[C@@H]1[C@@H](C/C=C\CCCC(=O)O)[C@@H](O)C[C@H]1O` [PGF2 α]: 0.20% and 1.5%.
With `CCCCC[C@H](O)/C=C/[C@@H]1[C@@H](C/C=C\CCCC(=O)O)[C@H](O)C[C@H]1O` [PGF2 β], the “% Cross-Reaction KLH Conjugate” value in [1] was 3.0%. Besides, the “% Cross-Reaction BSA Conjugate” value in data set [2] came to 4.4%.
As for `CCCCC[C@H](O)/C=C/[C@@H]1[C@@H](C/C=C\CCCC(=O)O)[C@@H]2C[C@H]1OO2` [PGH2], in data set [15], the half-life result is “approximately five”.
Turning to PGB3, the “% Cross Reaction” value in data set [4] is recorded as 62%; in [7], 7%.
For the compound PGE1 α, the “% Cross-Reaction KLH Conjugate” value in data set [1] stood at 0.09%. In addition, the “% Cross-Reaction BSA Conjugate” value in [2] stood at 2.9%.
